Assay: xn = mol fraction of the nth substance listed

C1CCCC1 + CCCO
101.3 kPa
Details | viscosity [mPa·s]
298.15 K, x1 = 0.0126 | 1.899
298.15 K, x1 = 0.0784 | 1.708
298.15 K, x1 = 0.1149 | 1.602
298.15 K, x1 = 0.1574 | 1.49
298.15 K, x1 = 0.1979 | 1.385
298.15 K, x1 = 0.2531 | 1.254
298.15 K, x1 = 0.289 | 1.17
298.15 K, x1 = 0.3309 | 1.085
298.15 K, x1 = 0.3663 | 1.017
298.15 K, x1 = 0.3847 | 0.982
298.15 K, x1 = 0.3986 | 0.959
298.15 K, x1 = 0.4161 | 0.924
298.15 K, x1 = 0.4387 | 0.888
298.15 K, x1 = 0.4706 | 0.839
298.15 K, x1 = 0.4885 | 0.807
298.15 K, x1 = 0.5064 | 0.781
298.15 K, x1 = 0.5132 | 0.772
298.15 K, x1 = 0.5396 | 0.739
298.15 K, x1 = 0.5459 | 0.726
298.15 K, x1 = 0.557 | 0.709
298.15 K, x1 = 0.563 | 0.703
298.15 K, x1 = 0.5899 | 0.673
298.15 K, x1 = 0.6188 | 0.639
298.15 K, x1 = 0.6413 | 0.615
298.15 K, x1 = 0.6734 | 0.587
298.15 K, x1 = 0.7116 | 0.552
298.15 K, x1 = 0.7421 | 0.529
298.15 K, x1 = 0.7853 | 0.497
298.15 K, x1 = 0.8171 | 0.478
298.15 K, x1 = 0.8537 | 0.458
298.15 K, x1 = 0.9793 | 0.412
308.15 K, x1 = 0.0566 | 1.511
308.15 K, x1 = 0.0958 | 1.374
308.15 K, x1 = 0.1491 | 1.257
308.15 K, x1 = 0.1968 | 1.105
308.15 K, x1 = 0.2217 | 0.997
308.15 K, x1 = 0.2344 | 0.927
308.15 K, x1 = 0.2399 | 0.886
308.15 K, x1 = 0.2558 | 0.874
308.15 K, x1 = 0.2708 | 0.851
308.15 K, x1 = 0.2943 | 0.815
308.15 K, x1 = 0.3274 | 0.772
308.15 K, x1 = 0.3677 | 0.719
308.15 K, x1 = 0.4171 | 0.659
308.15 K, x1 = 0.4901 | 0.582
308.15 K, x1 = 0.5698 | 0.516
308.15 K, x1 = 0.6573 | 0.457
308.15 K, x1 = 0.7599 | 0.415
308.15 K, x1 = 0.8996 | 0.392
318.15 K, x1 = 0.0747 | 1.139
318.15 K, x1 = 0.1126 | 1.074
318.15 K, x1 = 0.2293 | 0.876
318.15 K, x1 = 0.2845 | 0.769
318.15 K, x1 = 0.3533 | 0.654
318.15 K, x1 = 0.4 | 0.597
318.15 K, x1 = 0.4414 | 0.539
318.15 K, x1 = 0.4892 | 0.491
318.15 K, x1 = 0.4949 | 0.484
318.15 K, x1 = 0.5432 | 0.445
318.15 K, x1 = 0.5458 | 0.443
318.15 K, x1 = 0.5813 | 0.429
318.15 K, x1 = 0.6285 | 0.412
318.15 K, x1 = 0.6942 | 0.407
318.15 K, x1 = 0.7867 | 0.402
318.15 K, x1 = 0.8912 | 0.393

NCCO + CCCO
viscosity [mPa·s], 101.3 kPa
Details | x1 = 0.0998 | x1 = 0.1999 | x1 = 0.3005 | x1 = 0.4 | x1 = 0.5 | x1 = 0.6 | x1 = 0.7 | x1 = 0.8 | x1 = 0.9
303.15 K | 2.09 | 2.56 | 3.17 | 3.97 | 4.94 | 6.22 | 7.7 | 9.64 | 12
313.15 K | 1.66 | 2 | 2.42 | 2.97 | 3.63 | 4.44 | 5.41 | 6.62 | 8.11
323.15 K | 1.35 | 1.59 | 1.92 | 2.3 | 2.75 | 3.31 | 3.93 | 4.73 | 5.69

OCc1ccccc1 + CCCO
viscosity [mPa·s], 101 kPa
Details | x1 = 0.0744 | x1 = 0.1531 | x1 = 0.2366 | x1 = 0.3252 | x1 = 0.4196 | x1 = 0.5203 | x1 = 0.6278 | x1 = 0.7431 | x1 = 0.8668
298.15 K | 2.038 | 2.197 | 2.401 | 2.651 | 2.932 | 3.25 | 3.593 | 3.99 | 4.433
303.15 K | 1.796 | 1.918 | 2.083 | 2.288 | 2.52 | 2.783 | 3.071 | 3.404 | 3.776
308.15 K | 1.587 | 1.687 | 1.828 | 2.002 | 2.201 | 2.429 | 2.678 | 2.967 | 3.292
313.15 K | 1.368 | 1.447 | 1.562 | 1.709 | 1.877 | 2.07 | 2.282 | 2.53 | 2.807

NCCO + CCO
viscosity [mPa·s], 100 kPa
Details | x1 = 0.1 | x1 = 0.2 | x1 = 0.3 | x1 = 0.4 | x1 = 0.5 | x1 = 0.6 | x1 = 0.7 | x1 = 0.8 | x1 = 0.9
303.15 K | 1.33 | 1.73 | 2.3 | 3.05 | – | 5.37 | 7.03 | – | 11.6
313.15 K | 1.11 | 1.42 | 1.83 | 2.34 | 3.05 | 3.93 | 5.03 | 6.32 | 7.87
323.15 K | 0.967 | 1.19 | 1.47 | 1.85 | 2.34 | 2.95 | 3.7 | 4.54 | 5.57
